Measured values reported in paper PMC7891582 (Journal of Clinical Pharmacology, 2020).
“Also recorded” adds a separate entry of the source.

Assays:
CYP3A [1] = experiment: Midazolam; type: in vivo, human
CYP2C9 [2] = molecular target: CYP2C9 (Homo sapiens, UniProt P11712); experiment: Tolbutamide; type: in vivo
P‐gp [3] = molecular target: P‐gp (Homo sapiens, UniProt P08183); experiment: Digoxin; type: in vivo
CYP2C19 [4] = molecular target: CYP2C19 (Homo sapiens, UniProt P33261); experiment: Omeprazole
[5] = Safety in midazolam/tolbutamide study; type: in vivo, human
CYP2C9 [6] = details: read-out: IC50 for CYP2C9 inhibition; in vitro; ref unpublished in vitro studies; cited from earlier work
CYP2C19 [7] = details: in vitro data; ref unpublished in vitro studies; cited from earlier work
[8] = cited from earlier work
P‐gp [9] = details: cited from earlier work
CYP3A [10] = details: ref unpublished in vitro studies, cited from earlier work
[11] = Safety in omeprazole/digoxin study; type: in vivo, human
CYP3A [12] = details: human liver microsome, concentration-dependent; ref unpublished data; cited from earlier work
[13] = coadministered with pexidartinib
[14] = coadministered with pexidartinib 1800 mg
[15] = after multiple doses of pexidartinib
[16] = coadministration with single dose of pexidartinib
[17] = coadministered with single dose pexidartinib
[18] = omeprazole plus pexidartinib vs omeprazole only

Chain of P‐gp (Homo sapiens, UniProt P08183) (P08183 whole entry): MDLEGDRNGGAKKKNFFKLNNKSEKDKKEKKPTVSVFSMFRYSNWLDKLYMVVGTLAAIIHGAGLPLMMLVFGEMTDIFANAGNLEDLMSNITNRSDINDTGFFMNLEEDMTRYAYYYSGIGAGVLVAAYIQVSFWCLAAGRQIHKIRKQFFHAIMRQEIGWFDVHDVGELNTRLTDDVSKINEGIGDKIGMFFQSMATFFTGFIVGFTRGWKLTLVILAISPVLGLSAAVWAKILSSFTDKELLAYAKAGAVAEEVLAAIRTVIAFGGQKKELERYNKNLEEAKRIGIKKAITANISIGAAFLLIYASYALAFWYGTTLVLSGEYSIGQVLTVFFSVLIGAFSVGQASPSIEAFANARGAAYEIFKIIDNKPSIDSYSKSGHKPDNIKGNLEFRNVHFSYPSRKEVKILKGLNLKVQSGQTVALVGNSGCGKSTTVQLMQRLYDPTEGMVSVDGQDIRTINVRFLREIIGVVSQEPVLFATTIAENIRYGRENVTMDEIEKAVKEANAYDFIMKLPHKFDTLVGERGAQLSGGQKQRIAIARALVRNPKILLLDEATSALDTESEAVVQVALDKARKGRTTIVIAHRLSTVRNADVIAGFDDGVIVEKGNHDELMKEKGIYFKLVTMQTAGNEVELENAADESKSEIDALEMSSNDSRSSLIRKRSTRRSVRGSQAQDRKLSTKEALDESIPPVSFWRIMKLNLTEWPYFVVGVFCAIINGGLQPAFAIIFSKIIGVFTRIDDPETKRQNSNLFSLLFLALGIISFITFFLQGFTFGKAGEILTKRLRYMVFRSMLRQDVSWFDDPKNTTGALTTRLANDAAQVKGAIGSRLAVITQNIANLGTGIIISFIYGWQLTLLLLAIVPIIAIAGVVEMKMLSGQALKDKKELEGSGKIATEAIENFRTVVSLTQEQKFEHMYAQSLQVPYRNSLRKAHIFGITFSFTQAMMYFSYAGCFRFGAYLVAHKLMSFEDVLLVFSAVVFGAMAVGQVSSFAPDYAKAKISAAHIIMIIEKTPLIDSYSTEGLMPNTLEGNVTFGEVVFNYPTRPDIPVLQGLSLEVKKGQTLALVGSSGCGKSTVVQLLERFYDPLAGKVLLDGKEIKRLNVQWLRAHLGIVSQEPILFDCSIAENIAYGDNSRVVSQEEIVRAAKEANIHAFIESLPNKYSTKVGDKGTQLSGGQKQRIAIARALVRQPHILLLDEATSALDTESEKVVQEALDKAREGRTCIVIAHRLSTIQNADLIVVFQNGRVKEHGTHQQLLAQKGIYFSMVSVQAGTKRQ
Chain of CYP2C19 (Homo sapiens, UniProt P33261) (P33261 whole entry): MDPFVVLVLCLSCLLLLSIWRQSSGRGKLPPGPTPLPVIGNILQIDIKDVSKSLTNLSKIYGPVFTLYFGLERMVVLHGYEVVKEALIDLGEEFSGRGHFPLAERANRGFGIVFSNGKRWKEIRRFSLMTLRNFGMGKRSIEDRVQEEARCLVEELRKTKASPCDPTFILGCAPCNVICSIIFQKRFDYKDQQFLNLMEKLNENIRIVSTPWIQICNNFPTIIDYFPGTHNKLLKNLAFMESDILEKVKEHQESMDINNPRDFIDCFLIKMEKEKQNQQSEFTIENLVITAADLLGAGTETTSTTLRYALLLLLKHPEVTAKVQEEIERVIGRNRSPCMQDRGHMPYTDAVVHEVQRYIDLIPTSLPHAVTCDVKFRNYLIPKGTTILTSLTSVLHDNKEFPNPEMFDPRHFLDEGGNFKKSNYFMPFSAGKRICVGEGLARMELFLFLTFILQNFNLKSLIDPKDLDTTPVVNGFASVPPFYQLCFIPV
Chain of CYP2C9 (Homo sapiens, UniProt P11712) (P11712 whole entry): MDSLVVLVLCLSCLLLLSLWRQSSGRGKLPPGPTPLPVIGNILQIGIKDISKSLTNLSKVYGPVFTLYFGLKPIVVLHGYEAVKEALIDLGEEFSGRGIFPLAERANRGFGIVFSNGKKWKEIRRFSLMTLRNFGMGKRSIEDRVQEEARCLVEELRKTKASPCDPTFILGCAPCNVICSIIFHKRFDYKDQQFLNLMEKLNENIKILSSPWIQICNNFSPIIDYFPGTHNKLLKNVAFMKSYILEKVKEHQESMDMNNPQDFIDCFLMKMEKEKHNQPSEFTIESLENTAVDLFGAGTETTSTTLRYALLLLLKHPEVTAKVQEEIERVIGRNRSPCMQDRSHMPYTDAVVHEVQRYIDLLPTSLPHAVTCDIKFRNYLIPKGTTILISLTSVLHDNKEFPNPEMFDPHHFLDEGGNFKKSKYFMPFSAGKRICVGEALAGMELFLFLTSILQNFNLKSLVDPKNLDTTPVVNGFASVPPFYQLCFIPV

For OCc1ncc2n1-c1ccc(Cl)cc1C(c1ccccc1F)=NC2 [1‐hydroxy midazolam], the “exposure to 1-hydroxy midazolam” value (CYP3A [1]; with or without concomitant pexidartinib) was “similar”.

For CCCCNC(=O)NS(=O)(=O)c1ccc(CO)cc1 [4‐hydroxy tolbutamide], the “exposure to 4-hydroxy tolbutamide” value (CYP2C9 [2]; during pexidartinib coadministration) was “decrease”.

With C[C@H]1O[C@@H](O[C@H]2[C@@H](O)C[C@H](O[C@H]3[C@@H](O)C[C@H](O[C@H]4CC[C@@]5(C)[C@H](CC[C@@H]6[C@@H]5C[C@@H](O)[C@]5(C)[C@@H](C7=CC(=O)OC7)CC[C@]65O)C4)O[C@@H]3C)O[C@@H]2C)C[C@H](O)[C@@H]1O [digoxin] the “effect on digoxin AUClast” value (P‐gp [3]; [13]) was “no significant effect; also recorded: nonsignificant effect”, the “effect on digoxin time to reach Cmax or shape of plasma concentration-time curve” value (P‐gp [3]; [13]) was “no apparent effect” and the “increase in digoxin AUClast” value (P‐gp [3]; [14]) was 8%. The “increase in digoxin Cmax” value (P‐gp [3]; [14]) was 32%.

In the case of Cc1ncc2n1-c1ccc(Cl)cc1C(c1ccccc1F)=NC2 [midazolam], the “decrease in midazolam AUClast” value (CYP3A [1]; [15]) is reported as 52%, the “decrease in midazolam Cmax” value (CYP3A [1]; [15]) is reported as 28% and the “decrease in midazolam AUClast” value (CYP3A [1]; [16]) is reported as 21%. The “decrease in midazolam Cmax” value (CYP3A [1]; [16]) was 9%.

In the case of COc1ccc2[nH]c([S+]([O-])Cc3ncc(C)c(OC)c3C)nc2c1 (stereo not drawn) [omeprazole], the “decrease in Cmax for omeprazole” value (CYP2C19 [4]; [17]) is reported as 37%, the omeprazole tmax (CYP2C19 [4]; [17]) is reported as 3 h and the AUC(0-inf) (CYP2C19 [4]; human, plasma, oral, 40 mg) is reported as 1740 ng·h/mL. It also gave an AUC(0-t) (CYP2C19 [4]; human, plasma, oral, 40 mg) of 1730 ng·h/mL, a tmax (CYP2C19 [4]; human, plasma, oral, 40 mg) of 2.25 h and a Cmax (CYP2C19 [4]; human, plasma, po, 40 mg) of 908 ng/mL. For the same compound, the “AUCinf geometric LS mean ratio” value (CYP2C19 [4]; [18]) was 83.2%, the “AUClast geometric LS mean ratio” value (CYP2C19 [4]; [18]) was 77.4% and the “Cmax geometric LS mean ratio” value (CYP2C19 [4]; [18]) was 62.8%.

For FC(F)(F)c1ccc(CNc2ccc(Cc3c[nH]c4ncc(Cl)cc34)cn2)cn1 [pexidartinib], the “subjects with a grade 4 TEAE” value ([5]; 30 subjects with tumors) was 4 subjects, the “subjects with grade 3 TEAEs” value ([5]; 30 subjects with tumors) was 40% and the “subjects who discontinued treatment due to pexidartinib-related TEAEs” value ([5]; drug hypersensitivity, increased blood bilirubin) was 7%. The “grade 4 TEAEs considered related to pexidartinib” value ([5]; increased bilirubin) was 1, the tolerability ([5]; midazolam/tolbutamide study) was “generally well tolerated” and the “grade 3 TEAEs considered related to pexidartinib” value ([5]; of 22 grade 3 TEAEs) was 9. For the same compound, the IC50 (CYP2C9 [6]) was 3.7 µM, the “time dependence of inhibitory effect on CYP2C19” value (CYP2C19 [7]) was “not time dependent” and the “delay of tmax with high-fat meal” value [8] was 1.5 h. The “effect of high-fat meal on exposure” value [8] was “doubles”, the elimination half-life [8] was 26.6 h and the “accumulation ratio (exposure vs first dose)” value ([8]; multiple dosing, twice-daily regimen) was “≈ 3.6 times”. For the same compound, the tmax ([8]; oral administration) was “≈ 2.5 hours”, the “time dependence of inhibitory effect on P-gp” value (P‐gp [9]; in vitro data, ref unpublished in vitro studies) was “not time dependent” and the IC50 (P‐gp [9]; read-out: in vitro IC50 for P-gp, preclinical data, ref data on file) was 43.4 µM. The “in vivo effect on P-gp transport” value (P‐gp [3]; digoxin probe) was “does not significantly affect”, the “type of in vitro effect on CYP3A” value (CYP3A [10]; in vitro data) was “direct and time‐dependent inhibitor and an inducer” and the IC50 (CYP3A [10]; read-out: IC50 for CYP3A inhibition, in vitro) was 16.7 µM. For the same compound, the “TEAEs considered related to pexidartinib (all pruritus)” value ([11]; 20 healthy subjects) was “Three”, the “intensity of TEAEs” value ([11]; 20 healthy subjects) was “mild (grade 1)” and the “subjects who experienced a TEAE” value ([11]; 20 healthy subjects, single dose 1800 mg) was 40%. The tolerability ([11]; omeprazole/digoxin study) was “generally well tolerated”, the “in vivo effect on CYP2C9 (FDA criteria)” value (CYP2C9 [2]; tolbutamide probe) was “weak inhibitor” and the “in vivo effect on CYP2C19-mediated metabolism” value (CYP2C19 [4]; omeprazole probe) was “does not significantly affect”. For the same compound, the “in vivo effect on CYP3A (FDA criteria)” value (CYP3A [1]; midazolam probe) was “moderate inducer” and the “effect on midazolam hydroxylation” value (CYP3A [12]) was “activated midazolam hydroxylation”.
